Read-outs that look alike come from different tables or passages of the source. Values belong to the molecule of their own block, whether it stands above or below them.
Biological target: T1, BRM (Homo sapiens, UniProt P51531)
T1 construct: In-Cell Western Screen of BRM Degradation in SW1573 Cells; endogenous in cells; host or cells: SW1573
Assay: In-cell Western screen of BRM degradation in SW1573 cells (Dmax and DC50)
Type: cell-based
Settings: BRM degradation, SW1573 cells; for DC50: read-out: DC50; for Dmax: read-out: Dmax (%) (% degraded)
Procedure, shortened: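 SW1573 cells were treated overnight (18-20 hours) with compound at 0.1% final DMSO. They were then PFA-fixed, permeabilised with Triton X-100 and immunostained with 800 nm/680 nm secondary antibodies. BRM signal was quantified by LI-COR in-cell Western imaging to derive Dmax and DC50.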

[1] = when tested at the top concentration of between 0.3 and 10 μM
[2] = tested at the top concentration of between 0.3 and 10 μM

T1 sequence (P51531 whole entry): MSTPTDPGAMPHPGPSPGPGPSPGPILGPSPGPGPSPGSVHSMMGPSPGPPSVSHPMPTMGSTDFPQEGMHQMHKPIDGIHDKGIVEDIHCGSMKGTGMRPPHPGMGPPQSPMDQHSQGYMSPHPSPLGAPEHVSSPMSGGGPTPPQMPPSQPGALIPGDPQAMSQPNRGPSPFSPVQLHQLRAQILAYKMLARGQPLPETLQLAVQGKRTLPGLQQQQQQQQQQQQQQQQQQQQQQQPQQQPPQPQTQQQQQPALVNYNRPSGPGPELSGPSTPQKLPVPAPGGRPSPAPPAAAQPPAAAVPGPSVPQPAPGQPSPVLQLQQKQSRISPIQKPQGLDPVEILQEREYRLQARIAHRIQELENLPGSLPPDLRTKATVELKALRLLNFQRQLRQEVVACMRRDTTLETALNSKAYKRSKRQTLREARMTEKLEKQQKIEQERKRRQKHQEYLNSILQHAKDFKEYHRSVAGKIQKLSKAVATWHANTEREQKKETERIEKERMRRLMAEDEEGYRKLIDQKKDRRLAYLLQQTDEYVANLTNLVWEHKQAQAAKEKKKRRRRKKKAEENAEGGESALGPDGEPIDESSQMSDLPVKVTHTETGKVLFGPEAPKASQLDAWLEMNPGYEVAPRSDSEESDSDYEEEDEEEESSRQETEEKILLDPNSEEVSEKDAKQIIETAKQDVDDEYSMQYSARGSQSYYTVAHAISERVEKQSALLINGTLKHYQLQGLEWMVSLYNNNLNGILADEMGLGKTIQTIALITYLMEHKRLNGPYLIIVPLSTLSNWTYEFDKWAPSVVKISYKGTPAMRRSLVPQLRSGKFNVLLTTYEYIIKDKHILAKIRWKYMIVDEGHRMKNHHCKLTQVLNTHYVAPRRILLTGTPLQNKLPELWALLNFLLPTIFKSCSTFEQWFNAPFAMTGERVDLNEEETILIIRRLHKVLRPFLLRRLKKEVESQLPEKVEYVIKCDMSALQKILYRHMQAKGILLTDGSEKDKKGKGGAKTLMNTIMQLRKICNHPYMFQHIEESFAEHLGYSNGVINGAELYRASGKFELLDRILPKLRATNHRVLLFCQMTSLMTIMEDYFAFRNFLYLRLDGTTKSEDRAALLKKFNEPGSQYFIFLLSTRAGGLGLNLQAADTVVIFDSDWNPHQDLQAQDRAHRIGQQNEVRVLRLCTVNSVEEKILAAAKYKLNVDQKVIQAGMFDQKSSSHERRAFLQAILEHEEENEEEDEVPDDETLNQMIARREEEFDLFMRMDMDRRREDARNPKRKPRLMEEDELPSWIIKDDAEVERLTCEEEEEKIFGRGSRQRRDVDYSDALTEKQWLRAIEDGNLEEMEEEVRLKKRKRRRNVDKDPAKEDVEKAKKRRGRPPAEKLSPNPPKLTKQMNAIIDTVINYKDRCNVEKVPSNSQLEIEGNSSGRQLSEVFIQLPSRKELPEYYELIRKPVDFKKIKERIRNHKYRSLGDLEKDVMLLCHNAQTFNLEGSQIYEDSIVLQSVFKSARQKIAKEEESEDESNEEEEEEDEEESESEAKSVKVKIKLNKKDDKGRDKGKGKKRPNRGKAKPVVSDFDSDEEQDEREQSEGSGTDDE

SMILES: Cc1ncsc1-c1ccc([C@H](C)NC(=O)[C@@H]2C[C@@H](O)CN2C(=O)[C@@H](c2cc(CCCN3CCN(CCOc4cc(N5C6CCC5CN(c5cc(-c7ccccc7O)nnc5N)C6)ccn4)CC3)no2)C(C)C)cc1 [compound 134, (2S,4R)-1-((2R)-2-(3-(3-(4-(2-((4-(3-(3-amino-6-(2-hydroxyphenyl)pyridazin-4-yl)-3,8-diazabicyclo[3.2.1]octan-8-yl)pyridin-2-yl)oxy)ethyl)piperazin-1-yl)propyl)isoxazol-5-yl)-3-methylbutanoyl)-4-hydroxy-N-((S)-1-(4-(4-methylthiazol-5-yl)phenyl)ethyl)pyrrolidine-2-carboxamide]
- DC50: < 2.5 nM
- Dmax [1]: > 75%

SMILES: Cc1ncsc1-c1ccc([C@H](C)NC(=O)[C@@H]2C[C@@H](O)CN2C(=O)[C@@H](c2cc(OCCN3C[C@@H]4C[C@H]3CN4CCOc3cc(N4C5CCC4CN(c4cc(-c6ccccc6O)nnc4N)C5)ccn3)no2)C(C)C)cc1 [compound 135, (2S,4R)-1-((2R)-2-(3-(2-((1S,4S)-5-(2-((4-(3-(3-amino-6-(2-hydroxyphenyl)pyridazin-4-yl)-3,8-diazabicyclo[3.2.1]octan-8-yl)pyridin-2-yl)oxy)ethyl)-2,5-diazabicyclo[2.2.1]heptan-2-yl)ethoxy)isoxazol-5-yl)-3-methylbutanoyl)-4-hydroxy-N-((S)-1-(4-(4-methylthiazol-5-yl)phenyl)ethyl)pyrrolidine-2-carboxamide]
- DC50: < 2.5 nM
- Dmax [1]: > 75%

SMILES: Cc1ncsc1-c1ccc([C@H](C)NC(=O)[C@@H]2C[C@@H](O)CN2C(=O)[C@@H](c2cc(OCCN3C[C@H]4C[C@@H]3CN4CCOc3cc(N4C5CCC4CN(c4cc(-c6ccccc6O)nnc4N)C5)ccn3)no2)C(C)C)cc1 [compound 136, (2S,4R)-1-((2R)-2-(3-(2-((1R,4R)-5-(2-((4-(3-(3-amino-6-(2-hydroxyphenyl)pyridazin-4-yl)-3,8-diazabicyclo[3.2.1]octan-8-yl)pyridin-2-yl)oxy)ethyl)-2,5-diazabicyclo[2.2.1]heptan-2-yl)ethoxy)isoxazol-5-yl)-3-methylbutanoyl)-4-hydroxy-N-((S)-1-(4-(4-methylthiazol-5-yl)phenyl)ethyl)pyrrolidine-2-carboxamide]
- DC50: < 2.5 nM
- Dmax [1]: > 75%

SMILES: Cc1ncsc1-c1ccc([C@H](C)NC(=O)[C@@H]2C[C@@H](O)CN2C(=O)[C@@H](c2cc(OCCN3CCN(CCOc4cc(N5C6CCC5CN(c5cc(-c7ccccc7O)nnc5N)C6)ccn4)[C@H](C)C3)no2)C(C)C)cc1 [compound 139, (2S,4R)-1-((2R)-2-(3-(2-((3R)-4-(2-((4-(3-(3-amino-6-(2-hydroxyphenyl)pyridazin-4-yl)-3,8-diazabicyclo[3.2.1]octan-8-yl)pyridin-2-yl)oxy)ethyl)-3-methylpiperazin-1-yl)ethoxy)isoxazol-5-yl)-3-methylbutanoyl)-4-hydroxy-N-((S)-1-(4-(4-methylthiazol-5-yl)phenyl)ethyl)pyrrolidine-2-carboxamide]
- DC50: < 2.5 nM
- Dmax [1]: > 75%

SMILES: Cc1ncsc1-c1ccc([C@H](C)NC(=O)[C@@H]2C[C@@H](O)CN2C(=O)[C@@H](c2cc(OCCN3CCN(CCOc4cc(N5C6CCC5CN(c5cc(-c7ccccc7O)nnc5N)C6)ccn4)[C@@H](C)C3)no2)C(C)C)cc1 [compound 140, (2S,4R)-1-((2R)-2-(3-(2-((3S)-4-(2-((4-(3-(3-amino-6-(2-hydroxyphenyl)pyridazin-4-yl)-3,8-diazabicyclo[3.2.1]octan-8-yl)pyridin-2-yl)oxy)ethyl)-3-methylpiperazin-1-yl)ethoxy)isoxazol-5-yl)-3-methylbutanoyl)-4-hydroxy-N-((S)-1-(4-(4-methylthiazol-5-yl)phenyl)ethyl)pyrrolidine-2-carboxamide]
- DC50: < 2.5 nM
- Dmax [1]: > 75%

SMILES: Cc1ncsc1-c1ccc([C@H](C)NC(=O)[C@@H]2C[C@@H](O)CN2C(=O)[C@@H](c2cc(OCCN3CCN(CCOc4cc(N5C6CCC5CN(c5cc(-c7ccccc7O)nnc5N)C6)ccn4)C[C@@H]3C)no2)C(C)C)cc1 [compound 141, (2S,4R)-1-((2R)-2-(3-(2-((2S)-4-(2-((4-(3-(3-amino-6-(2-hydroxyphenyl)pyridazin-4-yl)-3,8-diazabicyclo[3.2.1]octan-8-yl)pyridin-2-yl)oxy)ethyl)-2-methylpiperazin-1-yl)ethoxy)isoxazol-5-yl)-3-methylbutanoyl)-4-hydroxy-N-((S)-1-(4-(4-methylthiazol-5-yl)phenyl)ethyl)pyrrolidine-2-carboxamide]
- DC50: < 2.5 nM
- Dmax [1]: > 75%

SMILES: Cc1ncsc1-c1ccc([C@H](C)NC(=O)[C@@H]2C[C@@H](O)CN2C(=O)[C@@H](c2cc(OCCN3CCN(CCOc4cc(N5C6CCC5CN(c5cc(-c7ccccc7O)nnc5N)C6)ccn4)C[C@H]3C)no2)C(C)C)cc1 [compound 142, (2S,4R)-1-((2R)-2-(3-(2-((2R)-4-(2-((4-(3-(3-amino-6-(2-hydroxyphenyl)pyridazin-4-yl)-3,8-diazabicyclo[3.2.1]octan-8-yl)pyridin-2-yl)oxy)ethyl)-2-methylpiperazin-1-yl)ethoxy)isoxazol-5-yl)-3-methylbutanoyl)-4-hydroxy-N-((S)-1-(4-(4-methylthiazol-5-yl)phenyl)ethyl)pyrrolidine-2-carboxamide]
- DC50: < 2.5 nM
- Dmax [1]: > 75%

SMILES: Cc1ncsc1-c1ccc([C@H](C)NC(=O)[C@@H]2C[C@@H](O)CN2C(=O)[C@@H](c2cc(N3CCN(CCN4CCC(O[C@H]5C[C@H](Oc6cc(N7C8CCC7CN(c7cc(-c9ccccc9O)nnc7N)C8)ccn6)C5)CC4)CC3)no2)C(C)C)cc1 [compound 144, (2S,4R)-1-((2R)-2-(3-(4-(2-(4-((1r,3r)-3-((4-(3-(3-amino-6-(2-hydroxyphenyl)pyridazin-4-yl)-3,8-diazabicyclo[3.2.1]octan-8-yl)pyridin-2-yl)oxy)cyclobutoxy)piperidin-1-yl)ethyl)piperazin-1-yl)isoxazol-5-yl)-3-methylbutanoyl)-4-hydroxy-N-((S)-1-(4-(4-methylthiazol-5-yl)phenyl)ethyl)pyrrolidine-2-carboxamide]
- DC50: < 2.5 nM
- Dmax [1]: > 75%

- DC50: > 30 nM
- Dmax [2]: > 75%
SMILES: Cc1ncsc1-c1ccc([C@H](C)NC(=O)[C@@H]2C[C@@H](O)CN2C(=O)[C@H](c2cc(OCCOc3ccc(C(C)n4cc(-c5cc(-c6ccccc6O)nnc5N)cn4)cc3)no2)C(C)C)cc1 (stereo partly drawn) [compound 156, (2S,4R)-1-((2S)-2-(3-(2-(4-(1-(4-(3-amino-6-(2-hydroxyphenyl)pyridazin-4-yl)-1H-pyrazol-1-yl)ethyl)phenoxy)ethoxy)isoxazol-5-yl)-3-methylbutanoyl)-4-hydroxy-N-((S)-1-(4-(4-methylthiazol-5-yl)phenyl)ethyl)pyrrolidine-2-carboxamide]

- DC50: 10 to 30 nM
- Dmax [2]: > 75%
SMILES: Cc1ncsc1-c1ccc([C@H](C)NC(=O)[C@@H]2C[C@@H](O)CN2C(=O)[C@H](c2cc(OCCn3cc(C(C)n4cc(-c5cc(-c6ccccc6O)nnc5N)cn4)ccc3=O)no2)C(C)C)cc1 (stereo partly drawn) [compound 157, (2S,4R)-1-((2S)-2-(3-(2-(5-(1-(4-(3-amino-6-(2-hydroxyphenyl)pyridazin-4-yl)-1H-pyrazol-1-yl)ethyl)-2-oxopyridin-1(2H)-yl)ethoxy)isoxazol-5-yl)-3-methylbutanoyl)-4-hydroxy-N-((S)-1-(4-(4-methylthiazol-5-yl)phenyl)ethyl)pyrrolidine-2-carboxamide]

SMILES: Cc1ncsc1-c1ccc([C@H](CO)NC(=O)[C@@H]2C[C@@H](O)CN2C(=O)[C@H](c2cc(OCCN3CCN(CCOc4cc(N5C6CCC5CN(c5cc(-c7ccccc7O)nnc5N)C6)ccn4)CC3)no2)C(C)C)cc1 [compound 158, (2S,4R)-1-((2S)-2-(3-(2-(4-(2-((4-(3-(3-amino-6-(2-hydroxyphenyl)pyridazin-4-yl)-3,8-diazabicyclo[3.2.1]octan-8-yl)pyridin-2-yl)oxy)ethyl)piperazin-1-yl)ethoxy)isoxazol-5-yl)-3-methylbutanoyl)-4-hydroxy-N-((R)-2-hydroxy-1-(4-(4-methylthiazol-5-yl)phenyl)ethyl)pyrrolidine-2-carboxamide]
- DC50: > 30 nM
- Dmax [2]: > 75%

SMILES: CC(C)[C@H](C(=O)N1C[C@H](O)C[C@H]1C(=O)N[C@@H](C)c1ccc(-c2nccn2C)cc1)c1cc(OCCN2CCN(CCOc3cc(N4C5CCC4CN(c4cc(-c6ccccc6O)nnc4N)C5)ccn3)CC2)no1 [compound 159, (2S,4R)-1-((2S)-2-(3-(2-(4-(2-((4-(3-(3-amino-6-(2-hydroxyphenyl)pyridazin-4-yl)-3,8-diazabicyclo[3.2.1]octan-8-yl)pyridin-2-yl)oxy)ethyl)piperazin-1-yl)ethoxy)isoxazol-5-yl)-3-methylbutanoyl)-4-hydroxy-N-((S)-1-(4-(1-methyl-1H-imidazol-2-yl)phenyl)ethyl)pyrrolidine-2-carboxamide]
- DC50: > 30 nM
- Dmax [2]: < 50%

SMILES: Cc1ncsc1-c1ccc([C@H](C)NC(=O)[C@@H]2C[C@@H](O)CN2C(=O)[C@H](c2cc(OCCN3CCN(CCOc4cc(N5C6CCC5CN(c5cc(-c7ccccc7O)nnc5N)C6)ccn4)CC3)no2)C(C)C)cn1 [compound 160, (2S,4R)-1-((2S)-2-(3-(2-(4-(2-((4-(3-(3-amino-6-(2-hydroxyphenyl)pyridazin-4-yl)-3,8-diazabicyclo[3.2.1]octan-8-yl)pyridin-2-yl)oxy)ethyl)piperazin-1-yl)ethoxy)isoxazol-5-yl)-3-methylbutanoyl)-4-hydroxy-N-((S)-1-(6-(4-methylthiazol-5-yl)pyridin-3-yl)ethyl)pyrrolidine-2-carboxamide]
- DC50: > 30 nM
- Dmax [2]: > 75%
